According to publication PMC11356819 (Molecules, 2024):

Columns and labels:
[1] = PET biodistribution in healthy mice; format: in vivo, C57BL/6 mice
Procedure: The in vivo stability, whole-body biodistribution and excretory pathways of [^18F]4 were investigated by small animal PET imaging in healthy C57BL/6 mice (Figure 5). […] In contrast, renal excretion was negligible, with very low radioactivity accumulation in the urinary bladder. Background uptake into muscles and other tissues was also low, with maximum SUVbw values of 52 ± 6 after 16 min followed by a decline to 18 ± 2 after 120 min. […] Nevertheless, while limited BBB penetrance might be an issue in patients with an intact BBB, brain tumors like gliomas are often associated with partial BBB disruption, which could facilitate tumor delivery of the probe. […] With this in mind and based on the reasonable in vivo stability and low background uptake, the tumor accumulation and mIDH-selectivity of [^18F]4 were further investigated in a subcutaneous tumor model.
All experiments were carried out in accordance with the EU directive 2010/63/EU for animal experiments and the German Animal Welfare Act (TierSchG, 2006) and were approved by the regional authorities (LANUV NRW; 81-02.04.2022.A442). Six male CB17-SCID mice and four male C57BL/6 mice (Janvier Labs, Le Genest-Saint-Isle, France) were housed in groups in individually ventilated cages (Allentown LLC, Allentown, NJ, USA) in a temperature- and humidity-controlled room (20 ± 2 °C, 50–60% humidity) on a 12:12 h light–dark cycle. Throughout the experiments, the animals had ad libitum access to water and food.
(§1) The mice were anesthetized with isoflurane (5% for induction, 2% for maintenance) in O2/air (3:7), and a catheter for tracer injection was inserted into the lateral tail vein. They were placed on an animal holder (Medres, Cologne, Germany) and fixed with a tooth bar in a respiratory mask. Body temperature was maintained at 37 °C by warming the animal bed. Eyes were protected from drying with Bepanthen eye and nose ointment (Bayer, Leverkusen, Germany). Respiratory rate was monitored and maintained at around 40–60 breaths per minute by adjusting the isoflurane concentration. A PET scan in list mode was conducted using a Focus 220 micro PET scanner (CTI-Siemens, Erlangen, Germany) with a resolution at the center of the field of view of 1.4 mm. Data acquisition started with intravenous tracer injection and ended after 120 min. This was followed by a 10 min transmission scan using a ^57Co point source for attenuation correction. After the scan was completed, the catheter was removed and the animals were allowed to wake up in their home cage. Data were histogrammed in three ways: (1) 4 × 30 min frames for visual display, (2) 28 frames (2 × 1 min, 2 × 2 min, 6 × 4 min, 18 × 5 min) for determination of time–activity curves, (3) 53 frames (12 × 10 s, 6 × 30 s, 15 × 1 min, 20 × 5 min) for kinetic modelling. Full 3D rebinning was followed by an iterative OSEM3D/MAP reconstruction algorithm with attenuation and decay correction. The resulting voxel sizes were 0.47 mm × 0.47 mm × 0.80 mm. All further analysis was performed with the software VINCI 5.21 (Max Planck Institute for Metabolism Research, Cologne, Germany). Standardized uptake values based on body weight (SUVbw) were determined according to the following equation: SUVbw = radioactivity [Bq/g] × body weight [g] × 100/injected dose [Bq]. Statistical analysis of the results was performed with a 2-way analysis of variance (ANOVA) followed by Sidak’s multiple comparison test to identify significant differences between the two tumor types.

U87-mIDH tumors = assay: PET imaging and 2TCM kinetic modelling of subcutaneous U87-mIDH tumors; format: in vivo
Description: The in vivo tumor uptake and mIDH selectivity of [^18F]4 were investigated by small animal PET imaging in CB17-SCID mice bearing subcutaneous U87-WT and U87-mIDH tumors, which were implanted in the right and left shoulder region, respectively (Figure 6).
Although the use of an image-derived input function instead of an invasive arterial input function could introduce some degree of systematic bias (due to, e.g., a lack of correction for spill-over and metabolism), this should affect the parameter estimation for both tumors in a given animal in the same manner and therefore have little impact on inter-tumor comparisons.
Six male CB17-SCID mice (24–26 g) were used for the subcutaneous tumor model. Twenty-four hours before tumor implantation, the animals were injected (i.p.) with 20 µL anti-asialo GM1 rabbit (Fujifilm Wako Chemicals Europe GmbH, Neuss, Germany) in 0.9% NaCl (total volume: 100 µL) to promote tumor cell survival and growth through a temporary reduction in natural killer cell activity. For tumor inoculation, suspensions of 5 × 10^6 tumor cells in 75 µL culture medium and 75 µL Corning Matrigel (Merck, Darmstadt, Germany) were injected subcutaneously into the right (U87-WT cells) and left (U87-mIDH cells) shoulder region.
as §1, with “mm.” for “mm. All further analysis was performed with the software VINCI 5.21 (Max Planck Institute for Metabolism Research, Cologne, Germany). Standardized uptake values based on body weight (SUVbw) were determined according to the following equation: SUVbw = radioactivity [Bq/g] × body weight [g] × 100/injected dose [Bq]. Statistical analysis of the results was performed with a 2-way analysis of variance (ANOVA) followed by Sidak’s multiple comparison test to identify significant differences between the two tumor types.”

In the case of `COc1cc(NCc2cc3cc([18F])ccc3[nH]c2=O)ccc1C#N` [[^18F]4], the “max. SUVbw liver” value ([1]; after 3 min, i.v., n = 4) was 304 ± 54, the “maximum SUVbw muscles and other tissues (background)” value ([1]; after 16 min) was 52 ± 6 and the SUVbw bone ([1]; after 120 min) was 67 ± 8. For the same molecule, the “SUVbw muscles and other tissues (background)” value ([1]; after 120 min) was 18 ± 2, the “max. SUVbw intestine” value ([1]; after 120 min, i.v., n = 4) was 5344 ± 1693 and the excretory pathway ([1]; mouse, in vivo) was “almost exclusive hepatobiliary excretion”. For the same molecule, the renal excretion ([1]; mouse, in vivo) was “negligible”, the “brain uptake of radioactivity” value ([1]; throughout all measurements) was “very low” and the “SUVbw U87-mIDH” value (U87-mIDH tumors; 0–30 min) was 31 ± 3. The “SUVbw U87-mIDH” value (U87-mIDH tumors; 30–60 min) was 24 ± 2, the “SUVbw U87-mIDH” value (U87-mIDH tumors; 60–90 min) was 18 ± 1 and the “SUVbw U87-mIDH” value (U87-mIDH tumors; 90–120 min) was 16 ± 1. The K1 (U87-mIDH tumors; U87-mIDH tumor, 2TCM, n = 5) was 0.141 ± 0.047 mL/ccm/min, the K1/k2 (U87-mIDH tumors; U87-mIDH tumor, 2TCM, n = 5) was 0.246 ± 0.063 mL/ccm and the “VS (specific distribution volume)” value (U87-mIDH tumors; U87-mIDH tumor, 2TCM, n = 5) was 0.225 ± 0.070 mL/ccm. For the same molecule, the “VT (total distribution volume)” value (U87-mIDH tumors; U87-mIDH tumor, 2TCM, n = 5) was 0.471 ± 0.084 mL/ccm, the k2 (U87-mIDH tumors; U87-mIDH tumor, 2TCM, n = 5) was 0.578 ± 0.173 min⁻¹ and the k3 (U87-mIDH tumors; U87-mIDH tumor, 2TCM, n = 5) was 0.057 ± 0.040 min⁻¹. For the same molecule, the “k3/k4, BPND (non-displaceable binding potential)” value (U87-mIDH tumors; U87-mIDH tumor, 2TCM, n = 5) was 0.962 ± 0.399 1/1, the k4 (U87-mIDH tumors; U87-mIDH tumor, 2TCM, n = 5) was 0.053 ± 0.023 min⁻¹ and the “max. SUVbw U87-mIDH tumors” value (U87-mIDH tumors; peak after 8 min, n = 3) was 35 ± 8.
